From patent publication US8481576B2 (Abbott GmbH & Co. KG, priority 2004, dated 2013) come the findings set out here.

The target in the assay is T1, h5-HT5A receptor (Homo sapiens, UniProt P47898).
T1 construct: expressed in transfected cells; host or cells: HEK293
Put plainly: [3H]5-CT binding assay h5-HT5A. As to conditions: membranes from HEK293 cells expressing h5-HT5A, 2.5 nM [3H]5-CT; read-out: Binding affinity 5-HT5A (Ki). On the procedure: 1. [^3H]5-CT binding assay h5-HT5A
Membranes from HEK293-cells, which permanently express the h5-HT5A receptor gene, were incubated in 100 mM Tris-HCl-buffer (pH 7.7), containing 1 mM EDTA in the presence of 2.5 nM [^3H]5-CT (600 μl total volume). The total binding is defined as the binding which is observed when the membranes are incubated alone in the presence of the radioligand. The inhibition induced by the compound is determined by incubation of cell membranes in the presence of the radioligand, and of different concentrations of the compound of interest. Unspecific binding is defined by the binding of [^3H]5-CT, which is obtained by incubation of the membranes as for the total binding but in the presence of 10 μM methiothepine. Following an incubation of 75 minutes at 30° C. the membrane suspension is filtered through GF/B-filters, wrapped in 0.03% PEI, wherein a Skatron® harvest system is used. The radioactivity retained in the filter is quantified by liquid scintillation counting.
In both assays, different concentrations of the test substances are used, and the Ki or the IC50 values are determined.

The structures appear in SMILES notation. Counter-ions that a name gives are not always drawn.

T1 sequence (P47898 whole entry): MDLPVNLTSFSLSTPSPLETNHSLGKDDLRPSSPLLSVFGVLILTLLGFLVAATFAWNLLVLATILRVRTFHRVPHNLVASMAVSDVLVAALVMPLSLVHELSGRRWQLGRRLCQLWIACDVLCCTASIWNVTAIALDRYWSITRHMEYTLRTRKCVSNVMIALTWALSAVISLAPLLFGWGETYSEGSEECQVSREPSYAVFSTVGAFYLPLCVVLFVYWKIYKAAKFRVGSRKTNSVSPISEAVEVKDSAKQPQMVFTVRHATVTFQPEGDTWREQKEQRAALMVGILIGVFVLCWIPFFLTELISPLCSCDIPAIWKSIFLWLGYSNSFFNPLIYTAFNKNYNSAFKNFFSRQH

By Ki is commonly meant a measure of affinity in units of concentration, obtained from inhibition or displacement. For the compound `COc1ccccc1CNC(=N)Nc1nc(-c2cccnc2)cs1` [Example 48, N-(2-methoxybenzyl)-N′-(4-pyridine-3-yl-1,3-thiazole-2-yl)guanidine], the Ki lay in the range of 50 to 500 nM.

Take `COC(=O)Cc1csc(NC(=N)NCc2c(OC)cccc2OC)n1` [Example 49, Methyl-(2-{[[(2,6-dimethoxybenzyl)amino](imino)methyl]amino}-1,3-thiazole-4-yl)acetate]: the Ki is less than 50 nM.

For the compound `COc1cccc(OC)c1CNC(=N)Nc1nc(-c2cccnc2)cs1` [Example 50, N-(2,6-dimethoxybenzyl)-N′-(4-pyridine-3-yl-1,3-thiazole-2-yl)guanidine acetate], the Ki is less than 50 nM.

Turning to `COc1ccccc1CNC(=N)Nc1nc(C(F)(F)F)cs1` [Example 52, N-(2-methoxybenzyl)-N′-[4-(trifluoromethyl)-1,3-thiazole-2-yl]guanidine (2E)-But-2-endioate], the inhibition constant Ki was more than 500 nM.

In the case of `COc1cccc(OC)c1CNC(=N)Nc1nc(C(F)(F)F)cs1` [Example 53, N-(2,6-dimethoxybenzyl)-N′-[4-(trifluoromethyl)-1,3-thiazole-2-yl]guanidine], the Ki lay within 50 to 500 nM.

On to `COc1ccccc1CNC(=N)Nc1ncc(C)s1` [Example 54, N-(2-methoxybenzyl)-N′-(5-methyl-1,3-thiazole-2-yl)guanidine (2E)-But-2-endioate], for which the Ki was less than 50 nM.

With `COc1cccc(OC)c1CNC(=N)Nc1ncc(C)s1` [Example 55, N-(2,6-dimethoxybenzyl)-N′-(5-methyl-1,3-thiazole-2-yl)guanidine], the Ki was less than 50 nM.

For the compound `COc1cccc(OC)c1CNC(=N)Nc1nc(-c2ccc(F)cc2)cs1` [Example 56, N-(2,6-dimethoxybenzyl)-N′-[4-(4-fluorophenyl)-1,3-thiazole-2-yl]guanidine], the inhibition constant Ki was less than 50 nM.

Consider `COc1cccc(OC)c1CNC(=N)Nc1nc(-c2ccc(C)cc2)cs1` [Example 57, N-(2,6-dimethoxybenzyl)-N′-[4-(4-methylphenyl)-1,3-thiazole-2-yl]guanidine], for which the inhibition constant (Ki) was less than 50 nM.

In the case of `COc1ccc(-c2csc(NC(=N)NCc3c(OC)cccc3OC)n2)cc1` [Example 58, N-(2,6-dimethoxybenzyl)-N′-[4-(4-methoxyphenyl)-1,3-thiazole-2-yl]guanidine], the Ki is less than 50 nM.

For `COc1cccc(F)c1CNC(=N)Nc1nc(-c2ccccc2)cs1` [Example 59, N-(2-fluoro-6-methoxybenzyl)-N′-(4-phenyl-1,3-thiazole-2-yl)guanidine], the inhibition constant (Ki) is less than 50 nM.

In the case of `COc1cccc(OC)c1CNC(=N)Nc1nc(-c2ccc(C#N)cc2)cs1` [Example 60, N-[4-(4-cyanophenyl)-1,3-thiazole-2-yl]-N′-(2,6-dimethoxybenzyl)guanidine], the inhibition constant (Ki) was less than 50 nM.

With `COc1cccc(-c2csc(NC(=N)NCc3c(OC)cccc3OC)n2)c1` [Example 61, N-(2,6-dimethoxybenzyl)-N′-[4-(3-methoxyphenyl)-1,3-thiazole-2-yl]guanidine], the Ki was less than 50 nM.

Regarding `CCN(CC)c1ccc(-c2csc(NC(=N)NCc3c(OC)cccc3OC)n2)cc1` [Example 62, N-{4-[4-(diethylamino)phenyl]-1,3-thiazole-2-yl}-N′-(2,6-dimethoxybenzyl)guanidine], the Ki was in the range of 50 to 500 nM.

As to `COc1cccc(OC)c1CNC(=N)Nc1nc(-c2ccc(N3CCCC3)cc2)cs1` [Example 63, N-(2,6-dimethoxybenzyl)-N′-[4-(4-pyrrolidine-1-ylphenyl)-1,3-thiazole-2-yl]guanidine hydrobromide], the inhibition constant (Ki) is less than 50 nM.

Take `COc1cccc(OC)c1CNC(=N)Nc1nc(-c2ccc(OC(F)(F)F)cc2)cs1` [Example 64, N-(2,6-dimethoxybenzyl)-N′-{4-[4-(trifluoromethoxy)phenyl]-1,3-thiazole-2-yl}guanidine hydrobromide]: the inhibition constant Ki was less than 50 nM.

Turning to `COc1cccc(OC)c1CNC(=N)Nc1nc(-c2ccc(N3CCOCC3)cc2)cs1` [Example 65, N-(2,6-dimethoxybenzyl)-N′-[4-(4-morpholine-4-ylphenyl)-1,3-thiazole-2-yl]guanidine hydrobromide], the inhibition constant Ki was less than 50 nM.

`COc1cccc(OC)c1CNC(=N)Nc1ncc(-c2ccccc2)s1` [Example 66, N-(2,6-dimethoxybenzyl)-M-(5-phenyl-1,3-thiazole-2-yl)guanidine hydrobromide]: the Ki is less than 50 nM.

Regarding `COc1cccc(OC)c1CNC(=N)Nc1nc(-c2cc3ccccc3o2)cs1` [Example 67, N-[4-(1-benzofuran-2-yl)-1,3-thiazole-2-yl]-N′-(2,6-dimethoxybenzyl)guanidine hydrobromide], the Ki is less than 50 nM.

For the compound `COc1cccc(OC)c1CNC(=N)Nc1nc(-c2cc(F)cc(F)c2)cs1` [Example 68, N-[4-(3,5-difluorophenyl)-1,3-thiazole-2-yl]-N′-(2,6-dimethoxybenzyl)guanidine hydrobromide], the inhibitory constant (Ki) is less than 50 nM.

For the compound `COc1cccc(OC)c1CNC(=N)Nc1nc(-c2ccc3c(c2)OCO3)cs1` [Example 69, N-[4-(1,3-benzodioxol-5-yl)-1,3-thiazole-2-yl]-N′-(2,6-dimethoxybenzyl)guanidine hydrobromide], the inhibition constant (Ki) is less than 50 nM.

Regarding `COc1cccc(OC)c1CNC(=N)Nc1nc(-c2ccccc2F)cs1` [Example 70, N-(2,6-dimethoxybenzyl)-N′-[4-(2-fluorophenyl)-1,3-thiazole-2-yl]guanidine hydrobromide], the Ki was less than 50 nM.

On to `COc1cccc(OC)c1CNC(=N)Nc1nc(-c2ccc(NS(C)(=O)=O)cc2)cs1` [Example 71, N-[4-(2-{[[(2,6-dimethoxybenzyl)amino](imino)methyl]amino}-1,3-thiazole-4-yl)phenyl]methanesulfonamide hydrobromide], for which the Ki is less than 50 nM.

As to `COc1cccc(OC)c1CNC(=N)Nc1nc(-c2ccsc2)cs1` [Example 72, N-(2,6-dimethoxybenzyl)-N′-[4-(3-thienyl)-1,3-thiazole-2-yl]guanidine acetate], the inhibition constant (Ki) is less than 50 nM.

Turning to `COc1cccc(OC)c1CNC(=N)Nc1nc(-c2cccc(F)c2)cs1` [Example 73, N-(2,6-dimethoxybenzyl)-N′-[4-(3-fluorophenyl)-1,3-thiazole-2-yl]guanidine hydrobromide], the inhibition constant (Ki) was less than 50 nM.

As to `COc1cccc(OC)c1CNC(=N)Nc1nc(-c2ccc(-c3ccccc3)cc2)cs1` [Example 74, N-(4-biphenyl-4-yl-1,3-thiazole-2-yl)-N′-(2,6-dimethoxybenzyl)guanidine hydrobromide], the inhibitory constant (Ki) is less than 50 nM.

For `COc1ccccc1-c1csc(NC(=N)NCc2c(OC)cccc2OC)n1` [Example 75, N-(2,6-dimethoxybenzyl)-N′-[4-(2-methoxyphenyl)-1,3-thiazole-2-yl]guanidine hydrobromide], the Ki is less than 50 nM.

For `COc1cccc(OC)c1CNC(=N)Nc1nc(C(c2ccccc2)c2ccccc2)cs1` [Example 76, N-(2,6-dimethoxybenzyl)-N′-[4-(diphenylmethyl)-1,3-thiazole-2-yl]guanidine hydrobromide], the inhibitory constant (Ki) was less than 50 nM.

In the case of `COc1cccc(OC)c1CNC(=N)Nc1nc(-c2ccc(Cl)s2)cs1` [Example 77, N-[4-(5-chloro-2-thienyl)-1,3-thiazole-2-yl]-N′-(2,6-dimethoxybenzyl)guanidine hydrobromide], the inhibition constant (Ki) is less than 50 nM.
